Data taken from publication PMC9936921 (Oncogene, 2018).
Read-outs that look alike come from different tables or passages of the source. Values belong to the molecule of their own block, whether it stands above or below them.

Assays:
Experiment in all cases: SPR
Type in all cases: binding
CD99 [1] = target: T1, CD99 (Homo sapiens, UniProt P14209)
T1 sequence (P14209 23-185): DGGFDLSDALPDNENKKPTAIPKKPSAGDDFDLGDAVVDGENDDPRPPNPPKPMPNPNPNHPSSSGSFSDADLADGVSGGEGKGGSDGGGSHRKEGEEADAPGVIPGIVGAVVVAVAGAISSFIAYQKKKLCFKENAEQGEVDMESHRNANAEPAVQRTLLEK

CD99 [2] = target: CD99 (Homo sapiens, UniProt P14209); remark: listed apart in the source
CD99 [3] = target: T1, CD99; remark: listed apart in the source

Kd (CD99 [1]): 5.3 ± 3.2 µM
Structure (SMILES): Nc1nc(Cl)nc2c1ncn2[C@@H]1O[C@H](CO)[C@@H](O)[C@@H]1F [clofarabine]

Structure (SMILES): Nc1nc(Cl)nc2c1ncn2[C@H]1C[C@H](O)[C@@H](CO)O1 [cladribine]
Kd (CD99 [2]): 3.8 ± 3.3 µM

Kd (CD99 [3]): 3.7 µM
Structure (SMILES): Nc1nc(Cl)nc2c1ncn2[C@@H]1O[C@H](COP(=O)(O)OP(=O)(O)OP(=O)(O)O)[C@@H](O)[C@@H]1F [clofarabine-5’-triphosphate]
